The record followed here is patent publication US8263044B2, “Stilbene like compounds as novel HDAC inhibitors” (Orchid Research Laboratories Limited, priority 2005, dated 2012).

Test [1] deals with HDAC activity (Mouse Liver Extract). The test is described as follows: Histone Deacetylase (HDAC) Inhibition Assay using Boc-Lys (Ac)-AMC Substrate. The following applies: mouse liver enzyme; for HDAC Inhibition 1 μM: inhibitor at 1 μM; for HDAC Inhibition 1 μM / HDAC Inhibition 10 μM: in % (unit assumed); for HDAC Inhibition 10 μM: inhibitor at 10 μM. In kind it is biochemical. As to the method:
Histone Deacetylase (HDAC) Inhibition Assay using Boc-Lys (Ac)-AMC Substrate: Inhibition of HDAC has been implicated to modulate transcription and to induce apoptosis or differentiation in cancer cells. The fluorometric assay provides a fast and fluorescence based method that eliminates radioactivity, extractions or chromatography, as used in traditional assays. The assay based on two steps. First, the HDAC fluorometric substrate, which comprises an acetylated lysine side chain, is incubated with a sample containing HDAC activity (Mouse Liver Extract). Deacetylation of the substrate sensitizes the substrate, in the second step; treatment with the Trypsin stop solution produces a fluorophore that can be easily analyzed using fluorescence plate reader.
Assay was done in 96 well black microplate and total volume of the assay is 100 ul. Mouse liver enzyme is diluted 1:6 with HDAC buffer. Enzyme cocktail made of 10 ul of diluted enzyme and 30 ul of HDAC buffer. 40 ul of enzyme cocktail dispensed into each well. 10 ul of different concentrations of inhibitor added in to each well, except enzyme control well. Preincubated the plate at 30° C. for 5 minutes. The HDAC reaction is started by adding 50 ul of HDAC substrate (Boc-Lys (Ac)-AMC Substrate) solution. Incubated the plate at 30° C. for 30 minutes. Adding 100 ul of Trypsin stop solution stops the reaction. The plate is incubated again at 30° C. for 20-30 minutes. The release of AMC is monitored by measuring the fluorescence at excitation wavelength of 365 or 360 nm and emission wavelength of 440 or 460 nm. Buffer and substrate alone kept for blank subtraction. (Dennis Wegener et al, Anal. Biochem, 321, 2003, 202-208).

Test [2] deals with NCIH460, HCT116, MDAMB231/U251. Nature of the test: Anti-cancer screen, mean GI50 over the cell lines. In kind it is cell-based. The following applies: mean over the three cell lines; no unit in table. As to the method: (§1) Experimental drugs are screened for anti-cancer activity in three cell lines for their GI50, TGI and LC50 values (using five concentrations for each compound). The cell lines are maintained in DMEM containing 10% fetal bovine serum. 96 well micro titer plates are inoculated with cells in 100 μL for 24 h at 37° C., 5% CO2, 95% air and 100% relative humidity. 5000 HCT 116 cells/well, 5000 NCIH 460 cells/well and 5000 U251 cells/well are plated. A separate plate with these cell lines is also inoculated to determine cell viability before the addition of the compounds (T0) (See Table I).
(§2) Following 24-hour incubation, experimental drugs are added to the 96 well plates. Each plate contains one of the above cell lines and the following in triplicate: five different concentrations (0.01, 0.1, 1, 10 and 100 μM) of four different compounds, appropriate dilutions of a cytotoxic standard and control (untreated) wells. Compounds are dissolved in DMSO to make 20 mM stock solutions on the day of drug addition and frozen at −20° C. Serial dilutions of these 20 mM stock solutions are made in complete growth medium such that 100 μL of these drug solutions in medium, of final concentrations equaling 0.01, 0.1, 1, 10 and 100 μM can be added to the cells in triplicate. […] (See Table I).
(§3) For T0 measurement, 24 hours after seeding the cells, 10 μL of 3-(4,5-Dimethyl-2-thiazolyl)-2,5-diphenyl-2H-tetrazolium (MTT) solution per well is added and incubation carried out for 3 hours at 37° C., 5% CO2, 95% air and 100% relative humidity, protected from light. Cells incubated with compounds for 48 hours are treated similarly except with the addition of 20 μL MTT solution per well and a subsequent incubation under the same conditions. After 3 hours of MTT incubation, well contents are aspirated carefully followed by addition of 150 μL DMSO per well. Plates are agitated to ensure solution of the formazan crystals in DMSO and absorbance read at 570 nm. (See Table I).
Percent growth is calculated for each compound's concentration relative to the control and zero measurement wells (T0; viability right before compound addition). […]

Test [3] has as its system MDAMB231/U251. The test is described as follows: cells. The following applies: 48 h, read-out: MDAMB231/U251 LC50.
In test [4] the test system is NCIH 460 cells. Nature of the test: cells. The following applies: Homo sapiens, NCI-H460, 48 h; for GI50: read-out: NCIH460 GI50; for CC50: read-out: NCIH460 LC50. As to the method: as §1, §2, §3
(§4) Percent growth is calculated for each compound's concentration relative to the control and zero measurement wells (T0; viability right before compound addition).
(§5) If a test well's O.D. value is lower than the T0 measurement for that cell line, then, % Growth=(test−zero)/zero×100

The test system of test [5] is HCT 116 cells. The test is described as follows: cells. The settings on record: Homo sapiens, HCT-116, 48 h; for GI50: read-out: HCT116 GI50; for CC50: read-out: HCT116 LC50. The procedure:
as §1, §2, §3, §4, §5

Test [6] concerns MDAMB231/U251. The test is described as follows: cells. The following applies: 48 h, read-out: MDAMB231/U251 GI50. The procedure:
as §1, §2, §3, §4, §5

Some results are limits rather than exact numbers.

For the molecule `Cc1ncsc1/C=C(\C(=O)NCCCCCC(=O)NO)c1ccc(Br)cc1` [Example 23, (2Z)-3-(4-Methylthiazol-5-yl)-2-(4-bromophenyl)-N-[6-(hydroxyamino)-6-oxohexyl]acrylamide], the “HDAC Inhibition 1 μM” value in test [1] is recorded as 42.7. For the same molecule, the “HDAC Inhibition 10 μM” value in test [1] is on record as 81.07. In test [1], this molecule yielded an IC50 of 1.8 µM. The GI50 in test [2] is 2.6 µM; in test [4], 0.8 µM; in test [5] it was 6 µM; in test [6], 1 µM. Moreover, the CC50 is 90 µM in test [3], greater than 100 µM in test [4] and greater than 100 µM in test [5].
As for `O=C(CCCCCNC(=O)/C(=C\c1ccc(F)c(C(F)(F)F)c1)c1ccc([N+](=O)[O-])cc1)NO` [Example 24, (2Z)-3-(4-Fluoro-3-trifluoromethylphenyl)-2-(4-nitrophenyl)-N-[6-(hydroxyamino)-6-oxohexyl]acrylamide], the “HDAC Inhibition 1 μM” value in test [1] was 46.1. In addition, the “HDAC Inhibition 10 μM” value in test [1] stood at 99.5. Besides, the GI50 in test [2] is 7.21 µM; in test [4] it was 16 µM; in test [5], 5 µM; in test [6] it was 0.3 µM. Besides, the CC50 in test [3] was 75 µM; in test [4], 82 µM; in test [5] it was greater than 100 µM.
Turning to `Cc1ncsc1/C=C(\C(=O)NCCCCCC(=O)NO)c1ccc(C(F)(F)F)cc1` [Example 26, (2Z)-3-(4-Methylthiazol-5-yl)-2-(4-trifluoromethylphenyl)-N-[6-(hydroxyamino)-6-oxohexyl]acrylamide], the “HDAC Inhibition 1 μM” value in test [1] worked out at 39.38. The “HDAC Inhibition 10 μM” value in test [1] is 76.69. The GI50 in test [2] amounted to 17.7 µM; in test [4], 34 µM; in test [5], 9 µM; in test [6], 10 µM. Further, the values for the CC50 in test [3], in test [4] and in test [5] were 85 µM, greater than 100 µM and 100 µM, respectively.
For `COc1ccc(/C(=C/c2cccc(Cl)c2)C(=O)NCCCCCC(=O)NO)cc1` [Example 28, (2Z)-3-(3-Chlorophenyl)-2-(4-methoxyphenyl)-N-[6-(hydroxyamino)-6-oxohexyl]acrylamide], the “HDAC Inhibition 1 μM” value in test [1] was 70.82. Also, the “HDAC Inhibition 10 μM” value in test [1] is 90.20. 0.44 µM corresponded to half-maximal inhibition in test [1] (IC50). The GI50 in test [2] amounted to 6 µM; in test [4] it was 9 µM; in test [5] it was 5 µM; in test [6], 4 µM. Further, the CC50 came out at 100 µM in test [3], 82 µM in test [4] and 45 µM in test [5].
In the case of `O=C(CCCCCNC(=O)/C(=C\c1ccccc1[N+](=O)[O-])c1ccc(Cl)cc1)NO` [Example 30, (2Z)-3-(2-Nitrophenyl)-2-(4-chlorophenyl)-N-[6-(hydroxyamino)-6-oxohexyl]acrylamide], the “HDAC Inhibition 1 μM” value in test [1] is reported as 52.95. In addition, the “HDAC Inhibition 10 μM” value in test [1] was found to be 84.69. Also, the GI50 in test [2] amounted to 13 µM; in test [4], 30 µM; in test [5], 6 µM; in test [6] it was 3 µM. The CC50 in test [3], in test [4] and in test [5] was greater than 100 µM in each case.
As for `O=C(CCCCCNC(=O)/C(=C\c1ccc(F)cc1Cl)c1ccccc1)NO` [Example 31, (2Z)-3-(2-Chloro-4-fluorophenyl)-2-(phenyl)-N-[6-(hydroxyamino)-6-oxohexyl]acrylamide], the “HDAC Inhibition 1 μM” value in test [1] came out at 72.20. In addition, in test [1], the “HDAC Inhibition 10 μM” value is 91.49. The GI50 in test [2] is 6.9 µM; in test [4] it was 9.7 µM; in test [5] it was 5 µM; in test [6], 6 µM. For the same molecule, the figures for the CC50 in test [3], in test [4] and in test [5] were greater than 100 µM, greater than 100 µM and 97 µM, respectively.
With `O=C(CCCCCNC(=O)/C(=C\c1ccc(Cl)o1)c1ccc(F)cc1)NO` [Example 37, (2Z)-3-(5-Chloro-2-furyl)-2-(4-fluorophenyl)-N-[6-(hydroxyamino)-6-oxohexyl]acrylamide], the “HDAC Inhibition 1 μM” value in test [1] was found to be 56.87. The “HDAC Inhibition 10 μM” value in test [1] was 83.89. The GI50 was 12.3 µM in test [2], 26 µM in test [4], 6 µM in test [5] and 5 µM in test [6]. The results for the CC50 in test [3], in test [4] and in test [5] were 80 µM, 90 µM and 90 µM, respectively.
As to `CSc1ccc(/C=C(\C(=O)NCCCCCC(=O)NO)c2ccc(C(F)(F)F)cc2)cc1` [Example 38, (2Z)-3-(4-Thiomethylphenyl)-2-(4-trifluoromethylphenyl)-N-[6-(hydroxyamino)-6-oxohexyl]acrylamide], the “HDAC Inhibition 1 μM” value in test [1] is 59.26. The “HDAC Inhibition 10 μM” value in test [1] turned out to be 97.74. Further, the GI50 in test [2] was found to be 3.9 µM; in test [4] it was 6 µM; in test [5], 5.5 µM; in test [6] it was 0.07 µM. The results for the CC50 in test [3], in test [4] and in test [5] were 60 µM, 64 µM and 65 µM, respectively.
On to `COc1ccc(/C(=C/c2c(F)ccc(F)c2F)C(=O)NCCCCCC(=O)NO)cc1` [Example 40, (2Z)-3-(2,3,6-Trifluorophenyl)-2-(4-methoxyphenyl)-N-[6-(hydroxyamino)-6-oxohexyl]acrylamide], for which the “HDAC Inhibition 1 μM” value in test [1] is recorded as 79.97. In addition, the “HDAC Inhibition 10 μM” value in test [1] was determined as 96.16. In addition, the GI50 was 3.27 µM in test [2], 3 µM in test [4], 5.8 µM in test [5] and 1 µM in test [6]. The CC50 in test [3] is 80 µM; in test [4], greater than 100 µM; in test [5] it was greater than 100 µM.
As to `CSc1ccc(/C=C(\C(=O)NCCCCCC(=O)NO)c2ccc([N+](=O)[O-])cc2)cc1` [Example 41, (2Z)-3-(4-Thiomethylphenyl)-2-(4-nitrophenyl)-N-[6-(hydroxyamino)-6-oxohexyl]acrylamide], in test [1], the “HDAC Inhibition 1 μM” value is on record as 68.69. The “HDAC Inhibition 10 μM” value in test [1] is 92.83. In addition, the GI50 in test [2] stood at 10 µM; in test [4], 15 µM; in test [5], 6 µM; in test [6], 9 µM. The CC50 was 90 µM in test [3], 94 µM in test [4] and 90 µM in test [5].
In the case of `CSc1ccc(/C=C(\C(=O)NCCCCCC(=O)NO)c2cccs2)cc1` [Example 43, (2Z)-3-(4-Thiomethylphenyl)-2-(thiophene-2-yl)-N-[6-(hydroxyamino)-6-oxohexyl]acrylamide], the “HDAC Inhibition 1 μM” value in test [1] turned out to be 89.26. Moreover, in test [1], the “HDAC Inhibition 10 μM” value is given as 100. Also, the IC50 in test [1] worked out at 0.26 µM. The GI50 in test [2] worked out at 5.02 µM; in test [4], 10 µM; in test [5] it was 5 µM; in test [6], 0.05 µM. Also, the CC50 is 75 µM in test [3], greater than 100 µM in test [4] and 70 µM in test [5].

The term IC50 denotes the concentration needed to halve the response being measured. Higher therefore signals weaker potency.
